{"source": "patent US6291676A", "about": "“Water-soluble derivatives of camptothecin/homocamptothecin” (priority 2000, dated 2001)", "test": "Fluorescence emission spectra in solvents and vesicle suspensions", "type": "physicochemical", "conditions": "37° C", "method": "FIG. 1 is the fluorescence emission spectra of 1 μM of 7-(1-Aminoethyl)camptothecin (7AEC) in various solvents and suspensions such as phosphate buffered saline, ethanol, and phosphate buffered saline containing small unilamellar vesicles (SUVs) composed either of dimyristoylphosphatidylcholine (DMPC) or dimyristoylphosphatidlyglycerol (DMPG). Experiments were conducted at 37° C. using exciting light of 370 nm.\nFIG. 2 is the fluorescence emission spectra of 4 μM of 7-[N-(4-methyl-1-piperazino) aminomethyl]-(20S)-camptothecin (CT-17) in various solvents and suspensions such as phosphate buffered saline, ethanol, and phosphate buffered saline containing small unilamellar vesicles (SUVs) composed either of DMPC or DMPG. Experiments were conducted at 37° C. using exciting light of 370 nm.\nFluorescence Instrumentation. Steady-state fluorescence measurements were obtained on a SLM Model 9850 spectrofluorometer with a thermostated cuvette compartment. This instrument was interfaced with an IBM PS/2 model 55 SX computer. Excitation and emission spectra were recorded with an excitation resolution of 8 nm and an emission resolution of 4 nm. In all cases spectra were corrected for background fluorescence and scatter from unlabeled lipids or from solvents by subtraction of the spectrum of a blank. Steady-state fluorescence intensity measurements were made in the absence of polarizers. […]", "data": [{"compound": "CC[C@@]1(O)C(=O)OCc2c1cc1n(c2=O)Cc2c-1nc1ccccc1c2CNN1CCN(C)CC1", "note": "[CT-17, 7-[N-(4-methyl-1-piperazino)aminomethyl]-(20S)-camptothecin]", "values": [{"measurement": "change of fluorescence emission upon introduction of lipid bilayers", "setting": "PBS with lipid bilayers", "result": "increase in fluorescence intensity"}, {"measurement": "shift of the fluorescence emission spectra in the presence of liposomes", "setting": "liposomes of DMPC or DMPG, λex 370 nm", "result": "shifts to shorter wavelength"}]}]}
